Laboratory results reported in patent US20260062443A1 (ALEXION PHARMACEUTICALS, INC., priority 2022, published 2026).

molecular target: T1, Human complement C1s enzyme (Homo sapiens, UniProt P09871); assay: Human C1s enzyme assay; type: biochemical; details: human complement C1s enzyme 1.16 nM, substrate Z-L-Lys-SBzl 100 μM, 5 min preincubation; read-out: IC50 (Stars), C1s Inhibiting Activity
T1 sequence (P09871 438-688 limits assumed): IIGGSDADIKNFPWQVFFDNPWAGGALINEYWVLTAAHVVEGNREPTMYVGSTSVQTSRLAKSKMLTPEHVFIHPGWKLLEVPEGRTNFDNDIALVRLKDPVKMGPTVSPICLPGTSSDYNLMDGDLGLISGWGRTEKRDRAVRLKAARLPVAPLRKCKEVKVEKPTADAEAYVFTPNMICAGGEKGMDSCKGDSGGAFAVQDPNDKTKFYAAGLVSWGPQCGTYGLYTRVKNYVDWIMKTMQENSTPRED
T1 sequence (P09871 16-437 partner limits assumed): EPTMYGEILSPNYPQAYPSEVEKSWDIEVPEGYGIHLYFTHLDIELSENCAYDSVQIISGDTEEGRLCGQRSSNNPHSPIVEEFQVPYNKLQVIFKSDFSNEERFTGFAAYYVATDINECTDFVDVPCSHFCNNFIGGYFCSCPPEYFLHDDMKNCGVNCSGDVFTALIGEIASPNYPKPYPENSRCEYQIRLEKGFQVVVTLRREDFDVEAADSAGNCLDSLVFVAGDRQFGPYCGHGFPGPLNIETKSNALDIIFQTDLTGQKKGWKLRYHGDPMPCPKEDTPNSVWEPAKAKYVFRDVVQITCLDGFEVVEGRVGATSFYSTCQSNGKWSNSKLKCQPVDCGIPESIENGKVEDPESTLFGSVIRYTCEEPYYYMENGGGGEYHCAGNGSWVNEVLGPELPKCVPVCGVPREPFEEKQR
Procedure: Other standard complement assays are also available.
Human complement C1s enzyme (purified from human serum, Complement Technology, Inc.) at 1.16 nM final concentration was incubated with test compound at various concentrations for 5 min at room temperature in 50 mM Tris, 1 M NaCl, pH 7.5. A synthetic substrate Z-L-Lys-SBzl and DTNB (Ellman's reagent) were added to final concentrations of 100 μM each. Absorbance at 405 nm (A405) was recorded at 30 second intervals for 30 min using a microplate spectrophotometer. IC50 values were calculated by nonlinear regression of complement C1 s reaction rates as a function of test compound concentration.
ND indicates a compound for which the IC50 value is not determined.

Row | SMILES | IC50
1 | O=C(NCC(=O)N1CC2(C[C@H]1C(=O)NCc1cc3ccncc3[nH]1)OCCO2)c1ccc2c(c1)-c1ccccc1C2(F)F [Compound 9, (S)-N-((1H-pyrrolo[2,3-c]pyridin-2-yl)methyl)-7-((9,9-difluoro-9H-fluorene-3-carbonyl)glycyl)-1,4-dioxa-7-azaspiro[4.4]nonane-8-carboxamide] | 100 to 1000 nM
2 | O=C(NCC(=O)N1C[C@H](OC(F)F)C[C@H]1C(=O)NCc1ccc2cnccc2c1)c1ccc2c(c1)Oc1ccccc1S2 [Compound 236, (2S,4R)-4-(difluoromethoxy)-N-(isoquinolin-6-ylmethyl)-1-((phenoxathiine-3-carbonyl)glycyl)pyrrolidine-2-carboxamide] | > 1000 nM
3 | CS(=O)(=O)[C@@H]1C[C@@H](C(=O)N[C@H](CO)c2cc3cnccc3[nH]2)N(C(=O)CNC(=O)c2ccc(Oc3ccc(F)cc3)cc2)C1 [Compound 96, (2S,4R)-1-((4-(4-fluorophenoxy)benzoyl)glycyl)-N-((S)-2-hydroxy-1-(1H-pyrrolo[3,2-c]pyridin-2-yl)ethyl)-4-(methylsulfonyl) pyrrolidine-2-carboxamide] | > 1000 nM
4 | Cc1ccc2c(c1)oc1ccc(C(=O)NCC(=O)N3C[C@H](OC(F)F)C[C@H]3C(=O)NCc3cc4cnccc4[nH]3)cc12 [Compound 332, (2S,4R)-N-((1H-pyrrolo[3,2-c]pyridin-2-yl)methyl)-4-(difluoromethoxy)-1-((7-methyldibenzo[b,d]furan-2-carbonyl)glycyl)pyrrolidine-2-carboxamide] | < 100 nM
5 | O=C(NCC(=O)N1C[C@H](OC(F)F)C[C@H]1C(=O)NCc1ccc2c(n1)CCN2)c1ccc2c(c1)Oc1ccccc1S2 [Compound 264, (2S,4R)-4-(difluoromethoxy)-N-((2,3-dihydro-1H-pyrrolo[3,2-b]pyridin-5-yl)methyl)-1-((phenoxathiine-3-carbonyl)glycyl)pyrrolidine-2-carboxamide] | > 1000 nM
6 | C[C@@]12C[C@@H]1N(C(=O)CNC(=O)CCCOc1ccccc1)[C@H](C(=O)NCc1cnc3c(CN)cccn13)C2 [Compound 63, (1S,3S,5S)-N-((8-(aminomethyl)imidazo[1,2-a]pyridin-3-yl)methyl)-5-methyl-2-((4-phenoxybutanoyl)glycyl)-2-azabicyclo[3.1.0]hexane-3-carboxamide] | > 1000 nM
7 | O=C(NCC(=O)N1C[C@H](OC(F)F)C[C@H]1C(=O)NCc1ccc2cc[nH]c2c1)c1ccc2c(c1)Oc1ccccc1S2 [Compound 196, (2S,4R)-N-((1H-indol-6-yl)methyl)-4-(difluoromethoxy)-1-((phenoxathiine-3-carbonyl)glycyl)pyrrolidine-2-carboxamide] | > 1000 nM
8 | Cc1cc(F)ccc1Oc1cccc(C(=O)NCC(=O)N2C[C@H](OC(F)F)C[C@H]2C(=O)NCc2cc3cnccc3[nH]2)c1 [Compound 274, (2S,4R)-N-((1H-pyrrolo[3,2-c]pyridin-2-yl)methyl)-4-(difluoromethoxy)-1-((3-(4-fluoro-2-methylphenoxy)benzoyl)glycyl) pyrrolidine-2-carboxamide] | < 100 nM
9 | C[C@@]12C[C@@H]1N(C(=O)CNC(=O)c1ccc3c(c1)Oc1ccccc1S3)[C@H](C(=O)NCc1cc3cc(B(O)O)ccc3[nH]1)C2 [Compound 291, (2-(((1S,3S,5S)-5-methyl-2-((phenoxathiine-3-carbonyl)glycyl)-2-azabicyclo[3.1.0]hexane-3-carboxamido)methyl)-1H-indol-5-yl)boronic acid] | > 1000 nM
10 | C[C@@H](NC(=O)[C@@H]1C[C@@H](OC(F)F)CN1C(=O)CNC(=O)c1ccc(Oc2ccccc2)cc1)c1cc2cnccc2s1 [Compound 209, (2S,4R)-4-(difluoromethoxy)-1-((4-phenoxybenzoyl)glycyl)-N-((R)-1-(thieno[3,2-c]pyridin-2-yl)ethyl)pyrrolidine-2-carboxamide] | 100 to 1000 nM
11 | C[C@@H](NC(=O)[C@@H]1CC2(CN1C(=O)CNC(=O)c1ccc3c(c1)Oc1ccccc1S3)OCCO2)c1cc2cnccc2[nH]1 [Compound 47, (S)-N-((R)-1-(1H-pyrrolo[3,2-c]pyridin-2-yl)ethyl)-7-((phenoxathiine-3-carbonyl)glycyl)-1,4-dioxa-7-azaspiro[4.4]nonane-8-carboxamide] | < 100 nM
12 | C[C@@H](NC(=O)[C@@H]1C[C@@H](OC(F)F)CN1C(=O)CN1Cc2cc(Br)ccc2C1=O)c1cc2cnccc2[nH]1 [Compound 100, (2S,4R)-N-((R)-1-(1H-pyrrolo[3,2-c]pyridin-2-yl)ethyl)-1-(2-(5-bromo-1-oxoisoindolin-2-yl)acetyl)-4-(difluoromethoxy)pyrrolidine-2-carboxamide] | 100 to 1000 nM
13 | C[C@@H](NC(=O)[C@@H]1C[C@H](c2ncco2)CN1C(=O)CNC(=O)c1ccc2c(c1)Oc1ccccc1S2)c1cc2cnccc2[nH]1 [Compound 178, (2S,4S)-N-((R)-1-(1H-pyrrolo[3,2-c]pyridin-2-yl)ethyl)-4-(oxazol-2-yl)-1-((phenoxathiine-3-carbonyl)glycyl)pyrrolidine-2-carboxamide] | < 100 nM
14 | C[C@@]12C[C@@H]1N(C(=O)CN1Cc3cc(-c4ccc(F)cc4F)ccc3C1=O)[C@H](C(=O)NCc1cc3cnccc3[nH]1)C2 [Compound 129, (1S,3S,5S)-N-((1H-pyrrolo[3,2-c]pyridin-2-yl)methyl)-2-(2-(5-(2,4-difluorophenyl)-1-oxoisoindolin-2-yl)acetyl)-5-methyl-2-azabicyclo[3.1.0]hexane-3-carboxamide] | < 100 nM
15 | C[C@@]12C[C@@H]1N(C(=O)CNC(=O)c1ccc(Oc3ccccc3)cc1)[C@H](C(=O)NCc1cc3cnccc3[nH]1)C2 [Compound 28, (1S,3S,5S)-N-((1H-pyrrolo[3,2-c]pyridin-2-yl)methyl)-5-methyl-2-((4-phenoxybenzoyl)glycyl)-2-azabicyclo[3.1.0]hexane-3-carboxamide] | < 100 nM
16 | O=C(NCC(=O)N1C[C@H](OC(F)F)C[C@H]1C(=O)N[C@@H](CO)c1cc2cnccc2[nH]1)c1ccc2c(c1)-c1ccccc1C2(F)F [Compound 128, (2S,4R)-1-((9,9-difluoro-9H-fluorene-3-carbonyl)glycyl)-4-(difluoromethoxy)-N-((R)-2-hydroxy-1-(1H-pyrrolo[3,2-c]pyridin-2-yl)ethyl) pyrrolidine-2-carboxamide] | > 1000 nM
17 | C[C@@]12C[C@@H]1N(C(=O)CNC(=O)c1ccc3c(c1)Oc1ccccc1S3)[C@H](C(=O)NCc1ccc3c(c1)B(O)OC3)C2 [Compound 290, (1S,3S,5S)-N-((1-hydroxy-1,3-dihydrobenzo[c][1,2]oxaborol-6-yl)methyl)-5-methyl-2-((phenoxathiine-3-carbonyl)glycyl)-2-azabicyclo[3.1.0]hexane-3-carboxamide] | > 1000 nM
18 | O=C(NCC(=O)N1C[C@H](OC(F)F)C[C@H]1C(=O)NCc1cc2cnccc2s1)c1cccc(Oc2ccc(F)cc2)c1 [Compound 254, (2S,4R)-4-(difluoromethoxy)-1-((3-(4-fluorophenoxy)benzoyl)glycyl)-N-(thieno[3,2-c]pyridin-2-ylmethyl)pyrrolidine-2-carboxamide] | < 100 nM
19 | C[C@@H](NC(=O)[C@@H]1C[C@@H](c2nccs2)CN1C(=O)CNC(=O)c1ccc2c(c1)Oc1ccccc1S2)c1cc2cnccc2[nH]1 [Compound 150, (2S,4R)-N-((R)-1-(1H-pyrrolo[3,2-c]pyridin-2-yl)ethyl)-1-((phenoxathiine-3-carbonyl)glycyl)-4-(thiazol-2-yl)pyrrolidine-2-carboxamide] | < 100 nM
20 | Nc1nccc2ccc(CNC(=O)[C@@H]3CC4(CN3C(=O)CNC(=O)c3ccc5c(c3)Oc3ccccc3S5)OCCO4)cc12 [Compound 51, (S)-N-((1-aminoisoquinolin-7-yl)methyl)-7-((phenoxathiine-3-carbonyl)glycyl)-1,4-dioxa-7-azaspiro[4.4]nonane-8-carboxamide] | > 1000 nM
21 | O=C(NCC(=O)N1C[C@H](OC(F)F)C[C@H]1C(=O)NCc1cc2cnccc2[nH]1)c1ccc(OC2CCCCC2)cc1 [Compound 383, (2S,4R)-N-((1H-pyrrolo[3,2-c]pyridin-2-yl)methyl)-1-((4-(cyclohexyloxy)benzoyl)glycyl)-4-(difluoromethoxy)pyrrolidine-2-carboxamide] | < 100 nM
22 | C[C@@H](NC(=O)[C@@H]1C[C@](F)(CF)CN1C(=O)CNC(=O)c1ccc2c(c1)Oc1ccccc1S2)c1cc2cnccc2[nH]1 [Compound 164, (2S,4R)-N-((R)-1-(1H-pyrrolo[3,2-c]pyridin-2-yl)ethyl)-4-fluoro-4-(fluoromethyl)-1-((phenoxathiine-3-carbonyl)glycyl)pyrrolidine-2-carboxamide] | < 100 nM
